Several values for one entry are separate records, joined by “and”; a condition that tells them apart may be missing. Equal entries are not always repeated. Entries after “also recorded” stand apart in the source; their conditions may differ.
Experiments:
[1] = tested on: motor neurons in embryonic rat spinal cord cultures; test: Excitotoxicity assay (100 μM kainic acid) in mixed spinal cord cultures; format: cell-based
Description: Unless otherwise specified, BDNF was added to all cultures.
Many previous in vitro investigations have identified motor neurons in mixed spinal cord cell culture by immunostaining for non-phosphorylated neurofilaments (or peripherin) and restricting analysis to cells with a soma diameter of 25 μm or greater (Carriedo et al., 2000; Hu and Kalb, 2003). We wanted to confirm the validity of this approach using an independent method for determining whether a given cell is a motor neuron. To specifically identify motor neurons in our cultures we purified these cells by metrizamide gradient and immunopanning techniques (Henderson et al., 1993; Fryer et al., 1999), live-labeled them with CM-DiI, and added these fluorescently-tagged, bona fide motor neurons to mixed cell cultures at the time of initial plating. All CM-DiI labeled cells stained for motor neurons markers such as non-phosphorylated neurofilament H (using antibody, SMI-32), peripherin, choline acetyl transferase (ChAT) and islet ½ (FIG. 1, panel a.). We then subjected spinal cord cultures to an excitotoxic insult and determined motor neuron survival using multiple methods for identifying motor neurons. […] Since all SMI-32 (+) cells with cell body diameter of 25 μm or greater were CM-DiI (+) and all CM-DiI (+) cells were SMI-32 (+), for the remainder of the studies herein, we could confidently study motor neuron death in vitro by counting SMI-32 (+) cells with a cell body diameter of 25 μm or greater.

[2] = tested on: Trk; test: Immunoblot for phosphoTrk in spinal cord cultures; format: cell-based, rat
Description: (§1) Cells were lysed in 1% NP-40 lysis buffers containing protease inhibitors, subjected to SDS-PAGE and immunoblotted as previously described (Fryer et al., 1999; Fryer et al., 2000). For immunoprecipitation, lysates from 60 mm dishes were pre-cleared by incubation with protein A beads (Santa Cruz), incubated with primary antibody (4 μg/ml)×2 hours then 50 μL of beads added and incubated overnight with gentle agitation at 4° C. Beads were pelleted, washed 5× with 10 mM Tris pH 7.4+0.5 mM EGTA+0.5 mM EDTA+0.1% NP40 before elution in 1× Laemelli sample buffer. Antibody sources: BD Transduction Labs—TrkB and MAP Kinase used at 1:500, Cell Signaling—Akt 1:1000; phosphoTrk (tyr490) 1:1000; phospho p42/44 MAP Kinase (thr 202/tyr204) 1:1000; phosphoAkt (ser473) 1:500; IGFI antibody (tyr 1131) 1:500. Upstate—adenosine A2a 1:1000. Sigma—actin 1:200. Biosource—active src (clone 28) 1:200.
(§2) We next asked about the effect of the adenosine A2 receptor antagonism on Trk signaling. Cultures of spinal cord cells (grown in the presence of a cocktail of trophic factors including 10 ng/ml BDNF) received KW6002 (1 μM), MRS1754 (50 nM) or vehicle (DMSO 0.1%) and 24 hrs. later, lysates were prepared for immunoblots for Trk and the MAP kinase downstream signaling module (FIG. 2, panel a). Immunoblots for phosphoTrk and phosphoMAPK were employed to monitor the state of activation of these proteins.
(§3) We followed up these observations by determining the effect of enprofylline on Trk signaling and determined the extent to which the resultant biochemical changes mimic the effects of direct pharmacological Trk antagonism with CEP4416. […] The effect of drug treatment on AKT was particularly marked. […] To determine the specificity of these agents, we examined their effect on Insulin-like growth factor 1 (IGF1) signaling through the IGF receptor tyrosine kinase (IGFR). […] It is unlikely that phosphodiesterase activity of enprofylline can explain these observations as increased cAMP levels enhance, not suppress, TrkB activation (Boulanger and Poo, 1999; Ji et al., 2005).

[3] = tested on: MAP kinase; test: Immunoblot for phosphoMAPK in spinal cord cultures; format: cell-based, rat
Description: as §1, §2, §3

[4] = tested on: Akt; test: Immunoblot for phosphoAKT in spinal cord cultures; format: cell-based, rat
[5] = tested on: IGF receptor tyrosine kinase (IGFR); test: Immunoblot for phospho-IGFR in spinal cord cultures; format: cell-based, rat
Description: as §1, §3

[6] = tested on: src-family kinases (SFK); test: Immunoblot for active SFKs (clone 28 antibody) in spinal cord cultures; format: cell-based, rat; conditions: 24 hours treatment
Description: as §1
The precise mechanism by which G-protein coupled receptors trans-activate receptor tyrosine kinases is complex and to some extent receptor-subtype specific (Luttrell et al., 1999; Downward, 2003; Piiper and Zeuzem, 2004; Waters et al., 2004). […] If this pathway was operative in spinal cord neurons, then antagonism of adenosine A2a receptors might lead to reduced src activation and antagonism of SFKs might be neuro-protective. Src is negatively regulated by phosphorylation of tyrosine 529 (refers to human src sequence) and an antibody that recognizes a de-phospho epitope in this region (“clone 28”) is a reliable measure of active src and SFKs (Kawakatsu et al., 1996). We began by asking for adenosine A2a receptors and active SFKs are present in the same cells and if so, their subcellular distribution. Pure motor neurons, grown in the presence of BDNF were immunostained with a rabbit anti-adenosine A2a receptor and the clone 28 antibody. One hundred percent of motor neurons expressed both antigens and on dendrites, the immunoreactivity formed discrete fine puncta (FIG. 5a). Many, but not all, puncta were stained with both antibodies. […]

[7] = Robeva et al.; cited from earlier work
[8] = 6 hours post drug administration
[9] = 48 hours post drug administration
[10] = 6 and 24 hours, 100 μM enprofylline, 30 nM CEP-4416

With `CCCn1c(=O)[nH]c(=O)c2[nH]cnc21` [enprofylline, 3-propylxanthine] the “% motor neuron death, short term (acute) treatment” value ([1]; drug added 30 minutes prior to excitotoxic challenge, counted 24 hours later) was ~40% and 46±4%, the “excitotoxic motor neuron death” value ([1]; drug for 4 days (added 4 and 2 days) prior to 100 μM kainic acid 1 h, SMI-32(+) motor neurons counted 24 h later) was “completely blocked the loss of SMI(+) neurons; also recorded: no excitotoxic motor neuron death” and the “abundance of phosphoTrk” value ([2]; 6, 24 or 48 hours, 100 μM enprofylline, 30 nM CEP-4416) was “decrease in the abundance of phosphoTrk at all time points”. The “phosphorylation of Trk” value [2, 8] was “decreases in the phosphorylation of Trk, MAP kinase and Akt”, the “abundance of phosphoTrk” value ([2]; 24 hours treatment) was “robust reduction in phosphoTrk, phosphoMAPK and phosphoAKT” and the “abundance of phosphoTrk” value [2, 9] was “decrease in phosphoTrk could still be detected”. For the same compound, the “abundance of phosphoMAPK” value [3, 10] was “decrease in the abundance of phosphoAKT and phosphoMAPK at 6 and 24 hours”, the “phosphorylation of MAP kinase” value [3, 8] was “decreases in the phosphorylation of Trk, MAP kinase and Akt” and the “abundance of phosphoMAPK” value ([3]; 24 hours treatment) was “robust reduction in phosphoTrk, phosphoMAPK and phosphoAKT”. For the same compound, the “phosphorylation of MAPK” value [3, 9] was “largely returned to baseline”, the “abundance of phosphoAKT” value [4, 10] was “decrease in the abundance of phosphoAKT and phosphoMAPK at 6 and 24 hours” and the “phosphorylation of Akt” value [4, 8] was “decreases in the phosphorylation of Trk, MAP kinase and Akt”. The “abundance of phosphoAKT” value ([4]; 24 hours post drug administration) was “robust reduction in phosphoTrk, phosphoMAPK and phosphoAKT”, the “abundance of phosphoAKT” value [4, 9] was “remained depressed” and the “IGF1-induced IGFR phosphorylation” value ([5]; 24 hour pretreatment, then acute IGF1) was “neither CEP-4416 nor enprofylline blunted the acute response; also recorded: undiminished by 24 hour pretreatment”. For the same compound, the “basal state of IGFR phosphorylation” value ([5]; 24 hour treatment) was “Neither drug led to an alteration in the abundance in the phosphorylated species; also recorded: had no effect on the basal state of IGFR phosphorylation”, the “abundance of active SFKs” value [6] was “reduced” and the “abundance of active SFKs” value ([6]; listed as Enprofylline) was “caused a reduction in the abundance of active SFKs”. The bioavailability [7] was “good”.
